In PMC10044725, “Antioxidant, Anti-Inflammatory and Anti-Diabetic Activities of Tectona grandis Methanolic Extracts, Fractions, and Isolated Compounds” (Antioxidants, 2023):

What was measured:
[1] = tested on: 3T3-L1 adipocytes; test: Glucose uptake assay in 3T3-L1 adipocytes; type: cell-based, mouse; settings: compounds at 40 µM, 48 h (Figure 11A(b))
Description: Mouse 3T3-L1 preadipocyte cells were maintained in DMEM supplemented with 10% NBCS and 1% P/S at 37 °C in a humidified environment with 5% CO2, and then began starvation when the cells grew to 80% confluence (day 0). To facilitate differentiation to adipocytes, 2-days post-confluent cells were placed in 10% FBS DMEM supplemented with 1% P/S, 0.5 mM IBMX, 1 μM Dex, 1 μM Rosi and 100 nM insulin (day 2). For another three days (day 5), the medium was changed to high glucose DMEM containing 10% FBS, 1% P/S and 100 nM insulin for one day (day 6), and the 3T3-L1 preadipocytes were fully differentiated into mature adipocytes.
Next, differentiated 3T3-L1 adipocytes at a density of 5 × 10^4 cells/well were cultured with DMEM in 96-well plates and divided into the blank control group, model group, insulin group (100 ng/mL), berberine group (10 μg/mL) and compound groups (40 μM). […] After 24 and 48 h of culture, glucose uptake was initiated by the addition of […] medium and 190 μL glucose detection reagent to each well, reaction at 37 °C for 15 min, and the glucose uptake was measured according to the operating instructions of the glucose content determination kit. Following the glucose uptake test, cell viability was detected by CellTiter96® Aqueous One Solution Cell Proliferation Assay. […] Absorbance was measured at 490 nm and relative cell viability was calculated according to Equation (7). […]

[2] = tested on: TNF-α; test: TNF-α secretion in LPS-stimulated RAW 264.7 macrophages (ELISA); type: cell-based, mouse; settings: 40 µM, LPS 1 µg/mL, 48 h, vs model control (p < 0.01)
Description: In order to increase cytokine production, macrophages were treated with LPS at a final concentration of 1 µg/mL, and then with T. grandis compounds at 40 µM. The compounds were solubilized in DMEM medium containing 0.1% DMSO. Dexamethasone was employed as a positive control (5 µg/mL). A centrifuge was used to separate the supernatant from the cells after 48 h of incubation, with three replicates per group. Quantification of TNF-α, IL-1β and IL-6 secretion was achieved by following the ELISA manufacturer's instructions. Then, absorbance was measured at 450 nm. Relative TNF-α, IL-1β and IL-6 expression was calculated according to Equation (4). Following the inflammatory factor test, cell viability was detected by CellTiter96® Aqueous One Solution Cell Proliferation Assay. Then, 20 μL/well CellTiter96® Aqueous One Solution Cell Growth Assay reagent was added to the plate and incubated at 37 °C for 8 h, absorbance was measured at […] and relative cell viability was calculated according to Equation (5). Relative content of inflammatory cytokines (%) = (A1/A2)/A3 × 100%(4) where A1 is the concentrations value of inflammatory cytokines of each group, A2 is the relative cell viability of each group (model group is 100) and A3 is the concentration of inflammatory cytokines of model group. Cell viability rate (%) = B1/B2 × 100%(5) where B1 is the OD value of each fraction group or positive control group and B2 is the OD value of the model control.

O=C(O)c1cc(O)c(O)c(O)c1 [Compound 23, gallic acid]
effect on glucose uptake [1]: significantly promote
effect on TNF-α inflammatory factor level [2]: could decrease
